Experimental data published in ChEMBL document CHEMBL4304811, “Development of a Water-Soluble Indolylmaleimide Derivative IM-93 Showing Dual Inhibition of Ferroptosis and NETosis” (ACS Med Chem Lett, 2019).

How the values were obtained:
[1] = biological target: Aurora kinase C (Homo sapiens) (UniProt Q9UQB9); experiment: Binding affinity to wild-type human full length AURKC (M1 to S275 residues) expressed in bacterial expression system assessed as residual binding level at 10 uM by Kinomescan method relative to control
Aurora kinase C (Homo sapiens), sequence (Q9UQB9 whole entry, the tested form may be a part): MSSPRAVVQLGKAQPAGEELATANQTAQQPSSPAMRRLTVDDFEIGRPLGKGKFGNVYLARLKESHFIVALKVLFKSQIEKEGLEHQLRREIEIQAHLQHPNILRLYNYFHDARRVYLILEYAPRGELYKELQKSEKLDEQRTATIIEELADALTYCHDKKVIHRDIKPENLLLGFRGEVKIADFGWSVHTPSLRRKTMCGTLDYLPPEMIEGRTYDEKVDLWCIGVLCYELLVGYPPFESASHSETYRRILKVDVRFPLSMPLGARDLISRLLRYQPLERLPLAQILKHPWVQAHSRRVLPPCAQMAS

[2] = biological target: Angiopoietin-1 receptor (Homo sapiens) (UniProt Q02763); experiment: Binding affinity to wild-type human partial length TIE2 (N804 to T1112 residues) expressed in bacterial expression system assessed as residual binding level at 10 uM by Kinomescan method relative to control
[3] = biological target: SRSF protein kinase 1 (Homo sapiens) (UniProt Q96SB4); experiment: Binding affinity to wild-type human full length SRPK1 (M1 to S655 residues) expressed in bacterial expression system assessed as residual binding level at 10 uM by Kinomescan method relative to control
[4] = biological target: Dual specificity protein kinase CLK4 (Homo sapiens) (UniProt Q9HAZ1); experiment: Binding affinity to wild-type human partial length CLK4 (R135 to K481 residues) expressed in bacterial expression system assessed as residual binding level at 10 uM by Kinomescan method relative to control
[5] = biological target: 5'-AMP-activated protein kinase catalytic subunit alpha-1 (Homo sapiens) (UniProt Q13131); experiment: Binding affinity to wild-type human partial length AMPK alpha1 (M1 to E306 residues) expressed in bacterial expression system assessed as residual binding level at 10 uM by Kinomescan method relative to control
5'-AMP-activated protein kinase catalytic subunit alpha-1 (Homo sapiens), sequence (Q13131 whole entry, looked up, the tested form may be a part): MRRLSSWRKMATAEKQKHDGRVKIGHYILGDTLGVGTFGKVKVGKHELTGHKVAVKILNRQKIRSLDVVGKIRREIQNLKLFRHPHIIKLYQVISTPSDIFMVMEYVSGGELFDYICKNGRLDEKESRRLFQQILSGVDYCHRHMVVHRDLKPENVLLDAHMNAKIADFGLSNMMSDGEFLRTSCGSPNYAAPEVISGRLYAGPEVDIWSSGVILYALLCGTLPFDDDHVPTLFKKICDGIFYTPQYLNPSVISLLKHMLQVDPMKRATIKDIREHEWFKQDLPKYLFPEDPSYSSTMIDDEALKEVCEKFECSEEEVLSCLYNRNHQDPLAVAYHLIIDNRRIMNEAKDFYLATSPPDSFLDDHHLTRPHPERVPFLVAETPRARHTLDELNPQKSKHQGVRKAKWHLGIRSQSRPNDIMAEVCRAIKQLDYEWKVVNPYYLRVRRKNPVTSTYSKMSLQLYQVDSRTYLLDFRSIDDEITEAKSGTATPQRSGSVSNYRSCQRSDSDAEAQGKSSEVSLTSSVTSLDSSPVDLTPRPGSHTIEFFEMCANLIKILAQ

[6] = biological target: Tyrosine-protein kinase Lck (Homo sapiens) (UniProt P06239); experiment: Binding affinity to wild-type human partial length LCK (R207 to P509 residues) expressed in bacterial expression system assessed as residual binding level at 10 uM by Kinomescan method relative to control
Tyrosine-protein kinase Lck (Homo sapiens), sequence (P06239 2-509 limits assumed): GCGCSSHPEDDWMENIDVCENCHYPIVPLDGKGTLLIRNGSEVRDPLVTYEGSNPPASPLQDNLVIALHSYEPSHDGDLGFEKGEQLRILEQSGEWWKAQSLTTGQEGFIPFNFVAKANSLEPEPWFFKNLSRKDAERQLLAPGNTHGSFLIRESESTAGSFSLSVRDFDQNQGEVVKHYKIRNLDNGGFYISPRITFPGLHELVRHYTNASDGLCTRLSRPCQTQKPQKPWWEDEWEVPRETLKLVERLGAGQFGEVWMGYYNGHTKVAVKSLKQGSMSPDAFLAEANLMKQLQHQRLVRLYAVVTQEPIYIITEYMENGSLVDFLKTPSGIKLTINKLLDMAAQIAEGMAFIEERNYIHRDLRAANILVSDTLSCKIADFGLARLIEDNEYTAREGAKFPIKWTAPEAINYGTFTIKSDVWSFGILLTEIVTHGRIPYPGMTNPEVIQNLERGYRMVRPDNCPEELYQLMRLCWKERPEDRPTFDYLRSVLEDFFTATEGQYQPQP

[7] = test system: Proto-oncogene tyrosine-protein kinase receptor Ret (Homo sapiens), P07949 [M918T]; experiment: Binding affinity to human partial length RET M918T mutant (E713 to D1014 residues) expressed in bacterial expression system assessed as residual binding level at 10 uM by Kinomescan method relative to control
[8] = test system: Epidermal growth factor receptor (Homo sapiens), P00533 [L858R]; experiment: Binding affinity to human partial length EGFR L858R mutant (R669 to V1011 residues) expressed in bacterial expression system assessed as residual binding level at 10 uM by Kinomescan method relative to control
[9] = biological target: Ribosomal protein S6 kinase beta-1 (Homo sapiens) (UniProt P23443); experiment: Binding affinity to wild-type human partial length S6K1 (M1 to S421 residues) expressed in mammalian expression system assessed as residual binding level at 10 uM by Kinomescan method relative to control
Ribosomal protein S6 kinase beta-1 (Homo sapiens), sequence (P23443 whole entry, looked up, the tested form may be a part): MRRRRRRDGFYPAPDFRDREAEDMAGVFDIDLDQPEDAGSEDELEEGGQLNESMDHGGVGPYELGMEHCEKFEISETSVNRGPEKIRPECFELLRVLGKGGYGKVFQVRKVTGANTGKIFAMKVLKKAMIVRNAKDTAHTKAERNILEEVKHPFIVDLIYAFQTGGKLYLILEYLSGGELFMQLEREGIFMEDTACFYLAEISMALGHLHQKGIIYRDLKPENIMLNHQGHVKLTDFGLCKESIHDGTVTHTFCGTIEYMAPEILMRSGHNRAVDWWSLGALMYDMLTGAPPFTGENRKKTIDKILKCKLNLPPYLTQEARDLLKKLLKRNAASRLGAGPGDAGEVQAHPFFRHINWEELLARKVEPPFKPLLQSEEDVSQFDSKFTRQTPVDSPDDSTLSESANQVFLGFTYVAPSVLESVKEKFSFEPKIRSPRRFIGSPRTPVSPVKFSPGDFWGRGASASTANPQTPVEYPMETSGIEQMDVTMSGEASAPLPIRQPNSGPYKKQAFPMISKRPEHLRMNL

[10] = biological target: Tyrosine-protein kinase Fes/Fps (Homo sapiens) (UniProt P07332); experiment: Binding affinity to wild-type human partial length FES (I527 to R822 residues) expressed in bacterial expression system assessed as residual binding level at 10 uM by Kinomescan method relative to control
[11] = biological target: Serine/threonine-protein kinase PAK 6 (Homo sapiens) (UniProt Q9NQU5); experiment: Binding affinity to wild-type human partial length PAK6 (N298 to C681 residues) expressed in bacterial expression system assessed as residual binding level at 10 uM by Kinomescan method relative to control
Serine/threonine-protein kinase PAK 6 (Homo sapiens), sequence (Q9NQU5 whole entry, looked up, the tested form may be a part): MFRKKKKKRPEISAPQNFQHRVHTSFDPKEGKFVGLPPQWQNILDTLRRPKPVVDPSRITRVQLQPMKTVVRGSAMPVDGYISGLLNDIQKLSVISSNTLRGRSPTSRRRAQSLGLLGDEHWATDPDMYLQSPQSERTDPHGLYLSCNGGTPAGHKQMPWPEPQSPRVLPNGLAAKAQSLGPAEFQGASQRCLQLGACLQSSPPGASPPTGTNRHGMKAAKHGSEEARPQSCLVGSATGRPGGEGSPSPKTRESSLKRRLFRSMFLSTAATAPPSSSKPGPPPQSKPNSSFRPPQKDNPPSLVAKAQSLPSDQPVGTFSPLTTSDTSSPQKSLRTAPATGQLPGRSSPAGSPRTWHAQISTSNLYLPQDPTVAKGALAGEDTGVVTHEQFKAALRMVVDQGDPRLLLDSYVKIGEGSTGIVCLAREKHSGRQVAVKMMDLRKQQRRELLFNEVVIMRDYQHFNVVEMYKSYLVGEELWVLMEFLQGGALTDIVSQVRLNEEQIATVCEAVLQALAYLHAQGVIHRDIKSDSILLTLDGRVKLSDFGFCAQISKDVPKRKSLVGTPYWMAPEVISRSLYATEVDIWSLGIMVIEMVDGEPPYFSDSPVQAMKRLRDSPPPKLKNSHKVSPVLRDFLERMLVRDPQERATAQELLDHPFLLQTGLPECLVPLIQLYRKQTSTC

[12] = biological target: Mitogen-activated protein kinase kinase kinase 7 (Homo sapiens) (UniProt O43318); experiment: Binding affinity to wild-type human partial length TAK1 (M1 to Q303 residues) expressed in mammalian expression system assessed as residual binding level at 10 uM by Kinomescan method relative to control
[13] = biological target: Ephrin type-B receptor 3 (Homo sapiens) (UniProt P54753); experiment: Binding affinity to wild-type human partial length EPHB3 (Q599 to T928 residues) expressed in bacterial expression system assessed as residual binding level at 10 uM by Kinomescan method relative to control
[14] = biological target: Leucine-rich repeat serine/threonine-protein kinase 2 (Homo sapiens) (UniProt Q5S007); experiment: Binding affinity to wild-type human partial length LRRK2 (H970 to E2527 residues) expressed in mammalian expression system assessed as residual binding level at 10 uM by Kinomescan method relative to control
[15] = test system: Leucine-rich repeat serine/threonine-protein kinase 2 (Homo sapiens), Q5S007 [G2019S]; experiment: Binding affinity to human partial length LRRK2 G2019S mutant (H970 to E2527 residues) expressed in mammalian expression system assessed as residual binding level at 10 uM by Kinomescan method relative to control
[16] = biological target: Tyrosine-protein kinase Fgr (Homo sapiens) (UniProt P09769); experiment: Binding affinity to wild-type human partial length FGR (L233 to T529 residues) expressed in bacterial expression system assessed as residual binding level at 10 uM by Kinomescan method relative to control
[17] = biological target: Tyrosine-protein kinase JAK1 (Homo sapiens) (UniProt P23458); experiment: Binding affinity to wild-type human partial length JAK1 JH2 pseudokinase domain (R537 to D855 residues) expressed in mammalian expression system assessed as residual binding level at 10 uM by Kinomescan method relative to control
[18] = biological target: Rho-associated protein kinase 1 (Homo sapiens) (UniProt Q13464); experiment: Binding affinity to wild-type human partial length ROCK1 (M1 to R415 residues) expressed in mammalian expression system assessed as residual binding level at 10 uM by Kinomescan method relative to control
[19] = biological target: NUAK family SNF1-like kinase 2 (Homo sapiens) (UniProt Q9H093); experiment: Binding affinity to wild-type human partial length SNARK (P22 to A333 residues) expressed in mammalian expression system assessed as residual binding level at 10 uM by Kinomescan method relative to control
[20] = biological target: Dual specificity mitogen-activated protein kinase kinase 6 (Homo sapiens) (UniProt P52564); experiment: Binding affinity to wild-type human partial length MEK6 (K36 to D334 residues) expressed in bacterial expression system assessed as residual binding level at 10 uM by Kinomescan method relative to control
[21] = biological target: Serine/threonine-protein kinase Sgk1 (Homo sapiens) (UniProt O00141); experiment: Binding affinity to wild-type human partial length SGK (I60 to L431 residues) expressed in mammalian expression system assessed as residual binding level at 10 uM by Kinomescan method relative to control
[22] = biological target: Fibroblast growth factor receptor 3 (Homo sapiens) (UniProt P22607); experiment: Binding affinity to wild-type human partial length FGFR3 (R442 to S771 residues) expressed in bacterial expression system assessed as residual binding level at 10 uM by Kinomescan method relative to control
[23] = biological target: Ephrin type-A receptor 8 (Homo sapiens) (UniProt P29322); experiment: Binding affinity to wild-type human partial length EPHA8 (Q608 to C920 residues) expressed in bacterial expression system assessed as residual binding level at 10 uM by Kinomescan method relative to control
Ephrin type-A receptor 8 (Homo sapiens), sequence (P29322 whole entry, the tested form may be a part): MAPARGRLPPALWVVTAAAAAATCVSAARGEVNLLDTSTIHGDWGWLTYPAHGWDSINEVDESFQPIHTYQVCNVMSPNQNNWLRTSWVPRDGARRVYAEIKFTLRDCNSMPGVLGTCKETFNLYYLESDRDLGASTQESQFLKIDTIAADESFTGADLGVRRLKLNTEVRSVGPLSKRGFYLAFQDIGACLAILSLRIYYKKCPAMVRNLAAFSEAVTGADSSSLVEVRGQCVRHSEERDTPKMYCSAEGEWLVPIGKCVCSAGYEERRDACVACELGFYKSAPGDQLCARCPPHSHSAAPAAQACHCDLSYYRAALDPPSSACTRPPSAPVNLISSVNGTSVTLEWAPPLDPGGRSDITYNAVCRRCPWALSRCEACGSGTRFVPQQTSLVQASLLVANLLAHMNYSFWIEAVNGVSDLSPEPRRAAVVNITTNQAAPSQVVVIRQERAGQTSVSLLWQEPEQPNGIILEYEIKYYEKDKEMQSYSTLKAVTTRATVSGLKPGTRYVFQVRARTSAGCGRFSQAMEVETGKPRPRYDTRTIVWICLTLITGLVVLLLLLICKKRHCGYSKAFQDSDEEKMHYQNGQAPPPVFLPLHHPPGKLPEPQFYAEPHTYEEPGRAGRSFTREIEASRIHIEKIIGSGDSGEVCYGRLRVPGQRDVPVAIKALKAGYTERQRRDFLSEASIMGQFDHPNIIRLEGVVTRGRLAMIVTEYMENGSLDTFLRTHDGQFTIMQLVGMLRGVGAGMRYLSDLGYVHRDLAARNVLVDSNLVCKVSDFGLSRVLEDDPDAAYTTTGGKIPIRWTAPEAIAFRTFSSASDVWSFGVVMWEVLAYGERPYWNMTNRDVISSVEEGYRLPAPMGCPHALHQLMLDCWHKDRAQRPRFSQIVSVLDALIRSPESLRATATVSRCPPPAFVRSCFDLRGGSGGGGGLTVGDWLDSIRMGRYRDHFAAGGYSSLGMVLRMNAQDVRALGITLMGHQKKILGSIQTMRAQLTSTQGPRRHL

[24] = biological target: Insulin-like growth factor 1 receptor (Homo sapiens) (UniProt P08069); experiment: Binding affinity to wild-type human partial length IGF1R (L972 to D1294 residues) expressed in bacterial expression system assessed as residual binding level at 10 uM by Kinomescan method relative to control
Insulin-like growth factor 1 receptor (Homo sapiens), sequence (P08069 31-736 limits assumed): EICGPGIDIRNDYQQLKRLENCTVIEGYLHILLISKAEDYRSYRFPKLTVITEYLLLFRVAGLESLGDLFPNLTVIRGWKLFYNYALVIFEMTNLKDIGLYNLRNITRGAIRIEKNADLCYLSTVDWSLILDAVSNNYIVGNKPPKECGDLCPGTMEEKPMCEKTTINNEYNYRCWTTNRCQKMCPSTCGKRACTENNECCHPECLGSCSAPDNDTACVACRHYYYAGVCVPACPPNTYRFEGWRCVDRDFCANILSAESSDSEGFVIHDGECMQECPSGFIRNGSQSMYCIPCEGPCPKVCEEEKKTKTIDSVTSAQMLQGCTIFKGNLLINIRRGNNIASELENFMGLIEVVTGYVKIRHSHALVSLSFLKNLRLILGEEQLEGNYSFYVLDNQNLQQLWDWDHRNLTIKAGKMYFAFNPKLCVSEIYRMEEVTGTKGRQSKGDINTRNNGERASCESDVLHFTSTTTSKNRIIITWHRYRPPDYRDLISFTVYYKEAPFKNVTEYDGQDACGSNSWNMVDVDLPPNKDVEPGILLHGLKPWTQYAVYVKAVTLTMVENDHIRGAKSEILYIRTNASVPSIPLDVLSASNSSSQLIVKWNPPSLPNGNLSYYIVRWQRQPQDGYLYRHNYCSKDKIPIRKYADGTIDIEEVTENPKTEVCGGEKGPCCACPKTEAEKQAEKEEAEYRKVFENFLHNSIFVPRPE
Insulin-like growth factor 1 receptor (Homo sapiens), sequence (P08069 741-1367 limits assumed): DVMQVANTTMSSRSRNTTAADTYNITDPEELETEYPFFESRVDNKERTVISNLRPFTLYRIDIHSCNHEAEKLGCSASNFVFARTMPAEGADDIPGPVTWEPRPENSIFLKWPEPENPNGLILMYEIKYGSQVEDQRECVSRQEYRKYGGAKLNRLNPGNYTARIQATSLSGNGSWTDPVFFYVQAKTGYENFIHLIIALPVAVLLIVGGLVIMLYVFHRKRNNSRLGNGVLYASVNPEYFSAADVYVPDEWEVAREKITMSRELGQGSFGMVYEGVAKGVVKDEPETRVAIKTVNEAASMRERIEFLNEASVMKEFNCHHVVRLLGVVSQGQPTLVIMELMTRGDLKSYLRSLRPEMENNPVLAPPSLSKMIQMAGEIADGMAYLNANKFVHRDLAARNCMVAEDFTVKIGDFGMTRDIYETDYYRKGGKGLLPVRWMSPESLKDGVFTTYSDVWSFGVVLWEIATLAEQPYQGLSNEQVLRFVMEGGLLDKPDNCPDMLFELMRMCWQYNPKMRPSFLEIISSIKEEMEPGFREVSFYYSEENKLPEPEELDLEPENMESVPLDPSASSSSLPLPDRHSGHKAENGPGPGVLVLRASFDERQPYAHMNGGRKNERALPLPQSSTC

CC(C)N1C(=O)C(NCCCN(C)C)=C(c2cn(C)c3ccccc23)C1=O.Cl
Activity [1]: 92%
Activity [2]: 93%
Activity [3]: 83%
Activity [4]: 95%
Activity [5]: 93%
Activity [6]: 92%
Activity [7]: 86%
Activity [8]: 82%
Activity [9]: 77%
Activity [10]: 100%
Activity [11]: 100%
Activity [12]: 78%
Activity [13]: 99%
Activity [14]: 94%
Activity [15]: 91%
Activity [16]: 82%
Activity [17]: 88%
Activity [18]: 96%
Activity [19]: 79%
Activity [20]: 99%
Activity [21]: 95%
Activity [22]: 100%
Activity [23]: 89%
Activity [24]: 80%
